Data taken from US20260049101A1, “TOPICAL TREATMENT OF SKIN CANCER USING OLIGOPEPTIDES” (BACOBA AG, priority 2022, published 2026).
“Also recorded” adds a separate entry of the source. Square brackets hold non-standard residues; d marks the D form. Peptide text beside a SMILES is read from it. * marks the point of attachment. NH(1-CH2NMe2-cBu) = CN(C)CC1(N*)CCC1; Benzoyl(4-F) = O=C(c1ccc(F)cc1)*; hCha = N[C@@H](CCC1CCCCC1)C(=O)O; Aib = CC(C)(N)C(=O)O; βAla = NCCC(=O)O

How the values were obtained:
[1] = Dermal tolerability in the in vivo efficacy test; parameters: species or system mouse; settings: 20 μl of 5% 6027 once a day
Protocol: In vivo efficacy test methodology. C57Bl/6 mice (Janvier Labs); females; 6-8 weeks old at beginning of the treatment. The tumour was induced through intradermal inoculation of 1×10^5 cells per mouse intradermally in the skin of the neck. A total of 24 mice were used (n=8 for vehicle, n=8 for 5% 6027, n=8 for leucinostatin A 0.2%). Test item was applied starting on day 1 after inoculation of the tumour cells. The test items of 20 μl of 5% 6027 and of 0.2% Leucinostatin A were applied dermally with a pipette once a day every day for up to 21 days to the intact skin area of about 1 cm^2 on the site were the B16-F10 cells had been injected. If ulceration occurred then the animal was removed from the test and sacrificed.

[2] = tested on: cutaneous squamous cell carcinoma cell line A431_SCC; settings: read-out: IC50 A431
Protocol: (§1) For the maintenance of healthy human fibroblast cell culture Dulbecco's Modified Eagle Medium (DMEM, Cat #11966025, Gibco) supplemented with 10% heat-inactivated fetal bovine serum (Cat #S006420H01, BioWest) was used. For the maintenance of melanoma cell cultures RPMI-1640 (Cat #R0883, Gibco) supplemented with L-glutamine (Cat #25030-081, Gibco), 1 mM sodium pyruvate (Cat #S8636, Sigma-Aldrich), 10% heat-inactivated fetal bovine serum (Cat #S006420H01, BioWest) and 1% Penicillin-Streptomycin (Cat #15140122, Gibco) was used. The MyLa_CTCL cell cultures were cultivated in RPMI 1640 Medium (R0883) supplemented with 2 mM L-Glutamine (G7513), 10 U/ml IL-2 (H7041), 10 U/ml IL-4 (H7291) and 10% Human AB Serum (H4522). The cutaneous squamous cell carcinoma cell cultures A431 and SCC13 were cultivated in Dulbecco's Modified Eagle Medium (DMEM, Cat #11966025, Gibco) supplemented with 10% heat-inactivated fetal bovine serum (Cat #S006420H01, BioWest).
(§2) To determine the half maximal inhibitory concentrations (IC50's) serial dilution of compounds in DMSO to 1000× was performed (10 mM, 5 mM, 1 mM, 500 μM, 250 μM, 100 μM, 10 μM, 1 μM). 2 μl of these dilutions were further diluted in 198 μl growth medium with supplements, mixed well and 10 μl were further dispensed in triplicates to the 96-well plates containing cells in 90 μl.
(§3) For each drug condition and cell culture (for each row of the triplicate) a well with only RPMI-1640 complete/KSFM/DMEM media and one with media and DMSO were made as controls. DMSO was never at a higher concentration than 0.2% v/v. Triplicates were seeded for each condition. On the day of the assay, the medium was exchanged with cell culture media containing 0.1% of Resazurin-sodium salt stock solution (stock: 0.015 mg/ml, in PBS, Cat #R7017, Sigma-Aldrich). […] With a fluorescence-based plate reader (Infinite M200 Pro, Tecan, Switzerland) using excitations between […] and emissions at 590 nM the cell-culture plates were readout. The calculations and graphs are performed with GraphPad Prism program. Vehicle treated wells were set to 100% viability.

[3] = tested on: cutaneous melanoma M150672; settings: read-out: IC50 M150672
Protocol: as §1, §2, §3

[4] = tested on: cutaneous T cell lymphoma MyLa_CTCL; settings: read-out: IC50 MyLa_CTCL
Protocol: as §1, §2, §3

[5] = tested on: cutaneous squamous cell carcinoma cell line SCC12; experiment: In vitro anti-proliferative assay (resazurin) in SCC12; type: cell-based; settings: SCC12, 72 hours
Text: Methodology. The cutaneous squamous cell carcinoma cell culture SCC12 was cultivated in keratinocyte-SFM media (KSFM, Cat #17005042, Gibco) supplemented with human recombinant epidermal growth factor 1-53 (EGF 1-53) and bovine pituitary extract (BFE).
Vehicle treated wells were set to 100% viability.

[6] = tested on: patient derived high grade cutaneous squamous cell carcinoma (cSCC); experiment: Ex vivo patient-derived high grade cSCC (Example 11), Ki67; type: cell-based, human; settings: 500 nM, 4 days, vs DMSO; p<0.003
Text: Tumour material was harvested from high grade cutaneous squamous cell carcinoma (cSCC) from a patient's head.

[7] = tested on: B16F10 xenografts in C57BL/6 mice; experiment: Histopathology (Ki67, TUNEL) of tumour slices from treated mice; type: in vivo, mouse; settings: daily 20 μl of 6027 vs vehicle treated controls; Two-Way ANOVA
Protocol: The read out was tumour volume measured three times a week expressed as tumour volume (in cm^3). Additionally, tumour samples were taken for histological analysis (Tumour FFPE) (2 mice per group).
Histopathology. After sacrifice non ulcerated tumours were sampled and paraffin blocks were prepared for immunohistochemistry stainings. […] During interphase, the Ki-67 antigen can be exclusively detected within the cell nucleus, whereas in mitosis most of the protein is relocated to the surface of the chromosomes. Ki-67 protein is present during all active phases of the cell cycle (G1, S, G2 and mitosis), but is absent in resting (quiescent) cells (G0). Cellular content of Ki-67 protein markedly increases during cell progression through S phase of the cell cycle.
TUNEL staining was used to determine areas of the tumour in which apoptosis was observed. Terminal deoxynucleotidyl transferase dUTP nick end labeling (TUNEL) staining is a method for detecting DNA fragmentation by labeling the 3′-hydroxyl termini in DNA double-stranded breaks generated during apoptosis.

[8] = Franz cells, 48 hours, donor 0.1% 6027 in DMSO, acceptor PBS + 2% Volpo; % of total 6027
Protocol: Pig ears from freshly slaughtered pigs, not older than 5 months and of both sexes, were obtained from the slaughterhouse Bell Schweiz AG (Basel, Switzerland). The ears were washed with tap water and the hairs were removed with an electric clipper. The skin was separated from the underlying cartilage from the backside of the ear by using a scalpel. After washing the skin again, it was stored in aluminium foil at −20° C. for no longer than one month.
After thawing the frozen skin, it was cut into adequate circles and the skin thickness was measured with a calliper. The skin was mounted into the FDC, tightly sealed with Teflon band and fixed in special designed holder. Then the acceptor compartment was equipped with a magnetic stirrer, filled with placebo formulation and equilibrated for one hour. To check the barrier integrity and to be sure that there are no invisible damages from skin preparation TEWL (transepidermal water loss) was measured. The FDCs were then placed in the water bath +32° C.±1 over a magnetic stirrer (500 rpm). Due to differences of each FDC, the skin application area for drug permeation was measured and calculated for each cell in advance. Consequently, the amount of 6027 for the donor compartment had to be adjusted for the infinite-dose experiment to 284.1 μL/cm^2.
At predefined time points 50 μL samples were taken from the acceptor compartment. The missing volume was replaced with the corresponding placebo formulation.
At the end of the permeation experiment and before reassembling the FDCs, the donor compartments were washed out with 10 mL ACN:H2O (55:45).
To extract 6027 from the skin, the frozen skin was cut into small pieces and grinded by a cryogenic grinder Freezer/Mill® from Spex SamplePrep (Metuchen, USA). The setting was 10 min precooling and a rate of 10 CPS for 4 cycles with 2 minutes. The resulting powder was resuspended in 2 mL ACN:H2O (55:45). […]
The concentrations of 6027 were determined by using HPLC-MS from Agilent Technologies. […]

## CC(C)C[C@H](NC(=O)[C@H](CCC1CCCCC1)NC(=O)[C@@H]1CCCN1C(=O)c1ccc(F)cc1)C(=O)NC(C)(C)C(=O)N[C@@H](CC(C)C)C(=O)N[C@@H](CC(C)C)C(=O)NC(C)(C)C(=O)NC(C)(C)C(=O)NCCC(=O)NC1(CN(C)C)CCC1 [Compound 6027, (2S)-2-[(2S)-4-cyclohexyl-2-{[(2S)-1-(4-fluorobenzoyl)pyrrolidin-2-yl]formamido}butanamido]-N-(1-{[(1S)-1-{[(1S)-1-({1-[(1-{[2-({1-[(dimethylamino)methyl]cyclobutyl}carbamoyl)ethyl]carbamoyl}-1-methylethyl)carbamoyl]-1-methylethyl}carbamoyl)-3-methylbutyl]carbamoyl}-3-methylbutyl]carbamoyl}-1-methylethyl)-4-methylpentanamide] ({Benzoyl(4-F)}-P[hCha]L[Aib]LL[Aib][Aib][βAla]-{NH(1-CH2NMe2-cBu)})
[1]
  skin irritations or other side effects: No skin irritations or other side effects were observed; also recorded: did not show skin irritations
  tolerability of dermal treatment: well tolerated
[2]
  IC50: 70 nM
[3]
  IC50: 122 nM
[4]
  IC50: 451 nM
[5]
  IC50: 118 nM
[6]
  cell proliferation (Ki67): significantly reduced
[7]
  apoptotic cells (TUNEL) in tumour slices: significant increase of apoptotic cells; also recorded: Strong proapoptotic potential
  proliferative cells (Ki67) in tumour slices: significant decrease in proliferative cells
[8]
  Acceptor (%): 0.2%
  Donor (%): 79%
  Skin extraction (%) (skin penetration): 16%
